Results from the NIST ThermoML archive (doi:10.1016/j.tca.2014.07.022).

Assay: xn = mol fraction of the nth substance listed
Details: 100 kPa, Liquid; for viscosity: Concentric cylinders viscometry; for mass density: Vibrating tube method

CC(=O)CC(C)C [4-methylpentan-2-one] + CC(C)O
Details	mass density [kg/m3]	viscosity [mPa·s]
293.15 K, x1 = 0.067	786.4	1.722
293.15 K, x1 = 0.1344	787.5	1.361
293.15 K, x1 = 0.2044	788.6	1.141
293.15 K, x1 = 0.3035	790.2	0.962
293.15 K, x1 = 0.3848	791.4	0.856
293.15 K, x1 = 0.5098	793.4	0.737
293.15 K, x1 = 0.5987	794.7	0.691
293.15 K, x1 = 0.6986	796.3	0.651
293.15 K, x1 = 0.8138	798	0.619
293.15 K, x1 = 0.9278	799.8	0.605
293.15 K, x1 = 1	800.8	0.588
298.15 K, x1 = 0.067	782.1	1.516
298.15 K, x1 = 0.1344	783.1	1.217
298.15 K, x1 = 0.2044	784.1	1.029
298.15 K, x1 = 0.3035	785.6	0.877
298.15 K, x1 = 0.3848	786.8	0.784
298.15 K, x1 = 0.5098	788.6	0.684
298.15 K, x1 = 0.5987	790	0.64
298.15 K, x1 = 0.6986	791.5	0.608
298.15 K, x1 = 0.8138	793.2	0.581
298.15 K, x1 = 0.9278	795	0.568
298.15 K, x1 = 1	796.1	0.554
303.15 K, x1 = 0.067	777.7	1.346
303.15 K, x1 = 0.1344	778.6	1.09
303.15 K, x1 = 0.2044	779.6	0.932
303.15 K, x1 = 0.3035	781	0.8
303.15 K, x1 = 0.3848	782.2	0.725
303.15 K, x1 = 0.5098	784	0.638
303.15 K, x1 = 0.5987	785.4	0.601
303.15 K, x1 = 0.6986	786.9	0.571
303.15 K, x1 = 0.8138	788.7	0.547
303.15 K, x1 = 0.9278	790.5	0.534
303.15 K, x1 = 1	791.6	0.523
308.15 K, x1 = 0.067	773.2	1.19
308.15 K, x1 = 0.1344	774.1	0.985
308.15 K, x1 = 0.2044	775	0.849
308.15 K, x1 = 0.3035	776.4	0.736
308.15 K, x1 = 0.3848	777.5	0.669
308.15 K, x1 = 0.5098	779.3	0.594
308.15 K, x1 = 0.5987	780.7	0.562
308.15 K, x1 = 0.6986	782.2	0.536
308.15 K, x1 = 0.8138	784	0.515
308.15 K, x1 = 0.9278	785.7	0.503
308.15 K, x1 = 1	786.9	0.493
313.15 K, x1 = 0.067	768.7	1.059
313.15 K, x1 = 0.1344	769.5	0.884
313.15 K, x1 = 0.2044	770.4	0.769
313.15 K, x1 = 0.3035	771.8	0.675
313.15 K, x1 = 0.3848	772.9	0.619
313.15 K, x1 = 0.5098	774.7	0.555
313.15 K, x1 = 0.5987	776	0.528
313.15 K, x1 = 0.6986	777.5	0.505
313.15 K, x1 = 0.8138	779.3	0.486
313.15 K, x1 = 0.9278	781.1	0.473
313.15 K, x1 = 1	782.3	0.463
318.15 K, x1 = 0.067	764.1	0.949
318.15 K, x1 = 0.1344	764.8	0.799
318.15 K, x1 = 0.2044	765.7	0.695
318.15 K, x1 = 0.3035	767	0.615
318.15 K, x1 = 0.3848	768.1	0.565
318.15 K, x1 = 0.5098	769.9	0.516
318.15 K, x1 = 0.5987	771.2	0.495
318.15 K, x1 = 0.6986	772.7	0.475
318.15 K, x1 = 0.8138	774.6	0.459
318.15 K, x1 = 0.9278	776.4	0.447
318.15 K, x1 = 1	777.6	0.437
323.15 K, x1 = 0.067	759.4	0.845
323.15 K, x1 = 0.1344	760.2	0.718
323.15 K, x1 = 0.2044	761	0.629
323.15 K, x1 = 0.3035	762.3	0.56
323.15 K, x1 = 0.3848	763.4	0.52
323.15 K, x1 = 0.5098	765.2	0.48
323.15 K, x1 = 0.5987	766.5	0.462
323.15 K, x1 = 0.6986	768.1	0.448
323.15 K, x1 = 0.8138	769.9	0.435
323.15 K, x1 = 0.9278	771.8	0.422
323.15 K, x1 = 1	773	0.41
